Test results: patent US11413321B2, “Pharmaceutical composition for use in increasing hair, modifying scalp or skin, healing a wound, promoting osteogenesis, or modifying hair” (priority 2017, dated 2022)

What was measured:
Format in all cases: in vivo, Wistar rat
CD68-positive cells = experiment: Immunohistological staining of rat dorsal skin after injection of fatty acids (CD68); conditions: 1 mg fatty acid in 20 μL per location
Protocol: (§1) Next, representative fatty acids contained in milk were administered to a 12-week-old Wistar rat at a plurality of locations on the dorsal skin as in Example 1(2) above, and a change in tissues by the administration was observed after the tissues were subjected to immunohistological staining. More specifically, physiological saline was administered in an amount of 20 μL per location, an administration liquid containing 1 mg of a fatty acid was administered in an amount of 20 μL per location, and a change in CD68-positive macrophage stained images and PPAR-γ-positive cell images by the administration was observed. Samples of the Wistar rat were obtained by sampling administration sites (four weeks after administration and eight weeks after administration). FIGS. 10A to 10G show the results. […] At saturated fatty acid injection sites, infiltration of a large number of CD68-positive cells was observed, and fibrillization of normal tissues was observed. Therefore, in FIGS. 10B to 10D, a change in fat tissues was examined at a location which was closest to the administration site and where normal tissues were maintained (non-fibrillization location).

PPAR-γ-positive cells = experiment: Immunohistological staining of rat dorsal skin after injection of fatty acids (PPAR-γ); conditions: 1 mg fatty acid in 20 μL per location
Protocol: as §1

Cxcr4 = experiment: Quantitative PCR of dorsal tissues after subcutaneous administration (Cxcr4); conditions: 20 μL per location into rat dorsal part; vs control without administration; FIG. 15
Protocol: (§2) 3.) C—X—C motif chemokine receptor 4 (Cxcr4), Rattus norvegicus: mRNA 1,726 bp NM 022205.3 GI: 82617587 Next, a change in gene expression in tissues was examined. Three regions were set between the head and the tail of the dorsal part of a 12-week-old Wistar rat (male), and each region was divided between the left and the right of the backbone into two regions to set a total of six regions on the dorsal part. Milk or palmitic acid was injected in an amount of 20 μL per location at two locations in the vicinity of the center of each region. The distance between the two locations was 1 cm. The collected tissue fragments were frozen with liquid nitrogen, and stored at −80° C. […] Analysis of gene expression by quantitative PCR was performed in the following manner: Integrated DNA technologies, Inc (Skokie, Ill., USA) was requested to design and synthesize gene-specific primers and probes, and using PrimeTime Gene Expression Master Mix Reagent (Integrated DNA Technologies, Inc, Skokie, Ill., USA) and Rotor-Gene Q PCR Apparatus (QIAGEN GmbH, Hilden, Germany), PCR analysis was performed twice per gene per specimen to analyze the expression level of a target gene. […]

CD34 = experiment: Quantitative PCR of dorsal tissues after subcutaneous administration (CD34); conditions: 20 μL per location into rat dorsal part; vs control without administration; FIG. 15
Protocol: as §2, with “5.) CD34,” for “3.) C—X—C motif chemokine receptor 4 (Cxcr4),”, “norvegicus: CD34 molecule (Cd34),” for “norvegicus:”, “1,161” for “1,726”, “001107202.2” for “022205.3”, “169790781” for “82617587”

[1] = eight weeks after administration

SMILES: CCCCCCCCCCCCCCCC(=O)O [palmitic acid]
- number of CD68-positive cells at the administration site (CD68-positive cells; [1]): maintained
- number of CD68-positive cells at the administration site (CD68-positive cells; four weeks after administration, vs physiological saline): increased
- increase in the number of PPAR-γ-positive cells at the administration site (PPAR-γ-positive cells; [1]): maintained
- number of PPAR-γ-positive cells at the administration site (PPAR-γ-positive cells; four weeks after administration, vs physiological saline, FIGS. 10B-10G): increased
- expression level of Cxcr4 in tissues (Cxcr4): greatly increased
- CD34 gene expression in tissues (CD34): increase
